Laboratory results: ChEMBL document CHEMBL5506031, “Design, Synthesis, Bioactive Evaluation, and Molecular Dynamics Simulation of Novel 4H-Pyrano[3,2-c]pyridine Analogues as Potential Sterol 14α-Demethylase (CYP51) Inhibitors” (J Med Chem, 2024)
Values after ≈ are worked out from the molar mass of the structure shown. Each block holds one compound with its values, some of them ahead of it. Active and inactive are the calls of the source. The calls are words filed in the database; no cut-off is given here.

Tests used:
Colletotrichum lagenaria = assay: Fungicidal activity against Colletotrichum lagenarium assessed as fungal inhibitory rate at 16 ug/ml relative to control; format: functional
Penicillium digitatum = assay: Fungicidal activity against Penicillium digitatum assessed as fungal inhibitory rate at 16 ug/ml relative to control; format: functional
Botrytis cinerea [1] = assay: Fungicidal activity against Botrytis cinerea assessed as fungal growth reduction; format: functional, organism-based
Fusarium oxysporum = assay: Fungicidal activity against Fusarium oxysporum assessed as fungal inhibitory rate at 16 ug/ml relative to control; format: functional
Botrytis cinerea [2] = assay: Induction of morphological changes in Botrytis cinerea assessed as uneven mycelia at 0.5 ug/ml incubated for 6 days by SEM analysis; format: functional, organism-based; conditions: dose 0.5 µg/ml, time 6.0 day
Botrytis cinerea [3] = assay: Induction of morphological changes in Botrytis cinerea assessed as tangled mycelia at 0.5 ug/ml incubated for 6 days by SEM analysis; format: functional, organism-based; conditions: dose 0.5 µg/ml, time 6.0 day
Botrytis cinerea [4] = assay: Induction of morphological changes in Botrytis cinerea assessed as irregular mycelia at 0.5 ug/ml incubated for 6 days by SEM analysis; format: functional, organism-based; conditions: dose 0.5 µg/ml, time 6.0 day
[5] = Inhibition of Botrytis cinerea CYP51 by ELISA
Botrytis cinerea [6] = assay: Induction of morphological changes in Botrytis cinerea assessed as thin cell membrane at 0.5 ug/ml incubated for 6 days by TEM analysis; format: functional, organism-based; conditions: dose 0.5 µg/ml, time 6.0 day
Botrytis cinerea [7] = assay: Fungicidal activity against Botrytis cinerea assessed as fungal inhibitory rate at 16 ug/ml relative to control; format: functional
Botrytis cinerea [8] = assay: Induction of morphological changes in Botrytis cinerea assessed as cracked cell structure at 0.5 ug/ml incubated for 6 days by TEM analysis; format: functional, organism-based; conditions: dose 0.5 µg/ml, time 6.0 day
Botrytis cinerea [9] = assay: Induction of morphological changes in Botrytis cinerea assessed as crinkly mycelia at 0.5 ug/ml incubated for 6 days by SEM analysis; format: functional, organism-based; conditions: dose 0.5 µg/ml, time 6.0 day
Botrytis cinerea [10] = assay: Inhibition of Botrytis cinerea CYP51 by fluorescent quenching analysis; conditions: dose <= 16.0 µg/ml
Sclerotinia sclerotiorum = assay: Fungicidal activity against Sclerotinia sclerotiorum assessed as fungal inhibitory rate at 16 ug/ml relative to control; format: functional
Botrytis cinerea [11] = assay: Induction of morphological changes in Botrytis cinerea assessed as thin cell wall at 0.5 ug/ml incubated for 6 days by TEM analysis; format: functional, organism-based; conditions: dose 0.5 µg/ml, time 6.0 day
Alternaria solani = assay: Antifungal activity against Alternaria solani assessed as fungal inhibition rate at 100 ug/ml relative to control; format: functional
Alternaria alternata = assay: Antifungal activity against Alternaria alternata assessed as fungal inhibition rate at 100 ug/ml relative to control; format: functional
Aspergillus flavus = assay: Antifungal activity against Aspergillus flavus; format: functional
Candida albicans = assay: Antifungal activity against Candida albicans; format: functional
Aspergillus niger = assay: Antifungal activity against Aspergillus niger; format: functional

SMILES: Fc1ccc([C@@]2(Cn3cncn3)O[C@@H]2c2ccccc2Cl)cc1
inhibition at 16 µg/mL (Colletotrichum lagenaria): 94.3% | inhibition at 16 µg/mL (Penicillium digitatum): 78.6% | EC50 (Botrytis cinerea [1]): 0.67 µg/mL (≈ 2.03 µM) | inhibition at 16 µg/mL (Fusarium oxysporum): 87.3% | Activity (Botrytis cinerea [2]): Active | Activity (Botrytis cinerea [3]): Active | Activity (Botrytis cinerea [4]): Active | IC50 [5]: 0.802 µg/mL (≈ 2.43 µM) | Activity (Botrytis cinerea [6]): Active | inhibition at 16 µg/mL (Botrytis cinerea [7]): 100% | Activity (Botrytis cinerea [8]): Active | Activity (Botrytis cinerea [9]): Active | inhibition (Botrytis cinerea [10]): Dose-Dependent Effect | inhibition at 16 µg/mL (Sclerotinia sclerotiorum): 100% | Activity (Botrytis cinerea [11]): Active

SMILES: CCOC(=O)c1c(C)nc2c(c1C)c(=O)oc1c(OC(=O)C(Br)CC)cccc12 (stereo not drawn)
inhibition at 100 µg/mL (Alternaria solani): 54.6% | inhibition at 100 µg/mL (Alternaria alternata): 62.1%

IC50 [5]: 0.611 µg/mL (≈ 1.01 µM) | inhibition (Botrytis cinerea [10]): Dose-Dependent Effect
SMILES: COC(=O)C1=C(N)OC2=C(CN(C(=O)c3ccco3)C/C2=C\c2ccc(Br)o2)C1c1ccc(Br)o1 (stereo not drawn)
inhibition at 16 µg/mL (Colletotrichum lagenaria): 84.9% | inhibition at 16 µg/mL (Penicillium digitatum): 76% | EC50 (Botrytis cinerea [1]): 0.53 µg/mL (≈ 0.874 µM) | inhibition at 16 µg/mL (Fusarium oxysporum): 83.5% | Activity (Botrytis cinerea [2]): Active | Activity (Botrytis cinerea [3]): Active | Activity (Botrytis cinerea [4]): Active | Activity (Botrytis cinerea [6]): Active | inhibition at 16 µg/mL (Botrytis cinerea [7]): 100% | Activity (Botrytis cinerea [8]): Active | Activity (Botrytis cinerea [9]): Active | inhibition at 16 µg/mL (Sclerotinia sclerotiorum): 82.7% | Activity (Botrytis cinerea [11]): Active

MIC (Aspergillus flavus): 12.5 µg/mL (≈ 43.4 µM) | MIC (Candida albicans): 12.5 µg/mL (≈ 43.4 µM)
SMILES: COC(=O)C1=C(C)OC(N)=C(C#N)C1c1ccc(F)cc1 (stereo not drawn)

MIC (Candida albicans): 12.5 µg/mL (≈ 26.9 µM)
SMILES: COc1ccc(NC(=O)c2cc3c(CO)cnc(C)c3o/c2=N\c2ccc(Cl)c(C)c2)cc1

SMILES: CCCC(Br)C(=O)Oc1ccc2c(c1)oc(=O)c1c(C)c(C(=O)OCC)c(C)nc12 (stereo not drawn)
inhibition at 100 µg/mL (Alternaria solani): 40.7% | inhibition at 100 µg/mL (Alternaria alternata): 44.6%

MIC (Aspergillus niger): 12.5 µg/mL (≈ 40 µM) | MIC (Aspergillus flavus): 12.5 µg/mL (≈ 40 µM)
SMILES: CC1(C)CC(=O)C2=C(C1)OC(N)=C(C#N)C2c1ccc(F)cc1 (stereo not drawn)

MIC (Aspergillus niger): 12.5 µg/mL (≈ 44 µM) | MIC (Candida albicans): 12.5 µg/mL (≈ 44 µM)
SMILES: CC1(C)CC(=O)C2=C(C1)OC(N)=C(C#N)C2c1ccco1 (stereo not drawn)

SMILES: Cc1cc(C)c2c(=O)oc3cc(OC(=O)C(C)Br)ccc3c2n1 (stereo not drawn)
inhibition at 100 µg/mL (Alternaria solani): 52.4% | inhibition at 100 µg/mL (Alternaria alternata): 41.6%
